# Measurements: US20120276064A1, “METHODS AND COMPOSITIONS FOR REJUVENATION AND EXPANSION OF STEM CELLS” (priority 2011, published 2012)
# Tested on: MuSCs transplanted into tibialis anterior muscle
# Assay: Transplantation of cultured MuSCs into irradiated NOD/SCID mice, engraftment by bioluminescence imaging
# Assay type: in vivo, mouse
# Conditions: young MuSCs cultured one week on soft hydrogel with 10 μM; 100 cells transplanted; one month
# Description: MuSC transplantation. MuSCs were transplanted immediately following FACS isolation or after collection from cell culture directly into the tibialis anterior muscle of recipient mice as previously described. Cells from GFP/Luciferase or Myf5^nLacZl+/Luciferase mice were transplanted into gender-matched, hindlimb-irradiated NOD/SCID (Jackson) mice. NOD/SCID (2-4 months of age, median 2 months) mice were anesthetized with ketamine (2.4 mg per mouse) and xylazine (240 μg per mouse) by intraperitoneal injection then were irradiated by a single dose of 18 Gy administered to the hindlimbs, with the rest of the body shielded in a lead jig. Transplantation was performed within three days post-irradiation. In syngeneic transplant studies, cells from old C57BL/6 mice were transplanted into gender-matched, littermate old C57BL/6 mice (Jackson) following culture for one week on soft hydrogels. Specifically, old C57BL/6 MuSCs were infected with a GFP/Luciferase lentivirus added at day 2 of culture for 24 hours. Recipient old C57BL/6 mice were acutely injured by a single 10 μl intramuscular injection of notexin (10 μg/ml; Latoxan, France) two days prior to cell transplantation, but were not irradiated. Freshly isolated or cultured cells were counted by hemocytometer and resuspended at desired cell concentrations in PBS with 2.5% goat serum and 1 mM EDTA. Cells were collected from hydrogel cultures by incubation with 0.5% trypsin in PBS for 2 min at 37° C. and counted using a hemocytometer. Cells were transplanted by intramuscular injection into the tibialis anterior muscle in a 10 μl volume.
# Tissue histology. Recipient tibialis anterior muscle tissues were prepared for histology as previously described to analyze GFP expression. Transverse sections were incubated with anti-laminin (Millipore, Billerica, Calif.), anti-GFP (Invitrogen) antibodies, and/or anti-β-galactosidase (Abcam, Cambridge, Mass.) with appropriate secondary antibodies (Invitrogen). Nuclei were counter-stained with Hoechst 33342 (Invitrogen). Images were acquired with an AxioPlan2 epi-fluorescent microscope (Carl Zeiss Microimaging, Thornwood, N.Y.) with Plan NeoFluar 10×/0.30NA or 20×/0.75NA objectives (Carl Zeiss) and an ORCA-ER digital camera (Hamamatsu Photonics, Bridgewater, N.J.). Digital images were captured in OpenLab software (Improvision, Waltham, Mass.) and assembled in Photoshop software (Adobe, San Jose, Calif.) with consistent contrast adjustments across all images from the same stain.
# Bioluminescence imaging. Bioluminescence imaging was performed using a Xenogen-100 system, as previously described. Briefly, mice were anesthetized under isofluorane and 100 μL luciferin (0.1 mmol/kg; Caliper LifeSciences, Hopkinton, Mass.) in PBS was administered by intraperitoneal injection. Following luciferin administration, images were acquired every minute for 15 min. Images acquired at 12 min post-luciferin injection were used for analysis. Digital images were recorded and analyzed using Living Image software (Caliper LifeSciences). Images were analyzed with a consistent region-of-interest (ROI) placed over each hindlimb to calculate a bioluminescence signal. A bioluminescence signal value of 80,000 photons/s was used to define a engraftment threshold, as this level corresponds to the histological detection of one or more GFP^+ myofiber (see FIG. 8A). BLI imaging was performed one month post-transplant unless otherwise stated.
# MuSC culture and treatment. Following isolation, MuSCs were pelleted and resuspended into myogenic cell culture medium containing DMEM/F10 (50:50), 15% FBS, 2.5 ng/ml bFGF, and 1% penicillin/streptomycin. MuSCs were seeded at 1000 cells per well (24-well plate size wells, 2.0 cm^2 surface area) on laminin-tethered hydrogels of either 12 kPa (soft) or ˜10^6 kPa (rigid) rigidities. Cells were maintained at 37° C. in 5% CO2. Media was changed daily. […]
structure (smiles),measurement,value
C[S+]([O-])c1ccc(-c2nc(-c3ccncc3)c(-c3ccc(F)cc3)[nH]2)cc1 (stereo not shown) [SB203580],Transplant engraftment efficiency (in words),improves the transplant engraftment efficiency
